Measurements from patent publication US20090298938A1, “USE OF SEMI SYNTHETIC ANALOGUES OF BOSWELLIC ACIDS FOR ANTICANCER ACTIVITY” (COUNCIL OF SCIENTIFIC & INDUSTRIAL RESEARCH, priority 2008, published 2009).

Assays:
Format in all cases: cell-based, human
PC-3 cells = test: In vitro cytotoxicity, SRB assay, PC-3
Protocol: (§1) The semi-synthetic analogues of formula 1 have been subjected to in vitro cytotoxicity screening in a panel of human cancer cell lines using following methodology. The human cancer cell lines were obtained either from National Center for Cell Science, Pune or National Cancer Institute, Fredrick, Md., USA. Cells were grown in tissue culture flasks in complete growth medium (RPMI-1640 medium with 2 mM glutamine, 100 µg/ml streptomycin, pH 7.4, sterilized by filtration and supplemented with 10% sterilized fetal calf serum and 100 units/ml penicillin before use) at 37° C. in an atmosphere of 5% CO2 and 90% relative humidity in a carbon dioxide incubator. The cells at sub-confluent stage were harvested from flask by treatment with trypsin (0.05% trypsin in PBS containing 0.02% EDTA) and suspended in complete growth medium. Cells with cell viability of more than 97% by trypan blue exclusion technique were used for determination of cytotoxicity.
(§2) Test material were dissolved in DMSO (dimethyl sulphoxide) to obtain a stock solution of 2×10^−2M. The stock solution was serially diluted with complete growth medium containing 50 μg/ml of gentamycin to obtain working test solutions of required concentrations.
(§3) The suspension of human cancer cell lines of required cell density in complete growth medium was prepared and cell suspension (100 μl/well) of each cell line was added to wells of 96-well tissue culture plate. Suitable blanks and controls were also included. The plates were incubated for 24 hrs in a carbon dioxide incubator.
(§4) The working test solutions of different concentrations (100 μl/well) were added after 24 hr incubation. The plates were further incubated for 48-hrs after addition of the test materials. After incubation, the cell growth was stopped by gently layering of 50 μl of TCA (50% trichloroacetic acid) on top of the medium in all the wells. The plates were incubated at 4° C. for one hour to fix the cells attached to bottom of the wells. Liquids of all the wells were gently pipetted out and discarded. The plates were washed five times with distilled water to remove TCA, growth medium, low molecular weight metabolites, serum proteins etc. The plates were air dried.
(§5) Cell growth was measured by staining with sulforhodamine B dye (SRB). The SRB solution (100 μl, 0.4% in 1% acetic acid) was added to each well and the plates were incubated at room temperature for 30 minutes. The unbound SRB was quickly removed by washing the wells five times with 1% acetic acid solution and plates were air dried. Tris buffer (100 μl, 0.01 M, pH 10.4) was added to all the wells and plates were gently stirred for 5 minutes on a mechanical stirrer. The optical density was recorded on ELISA reader at 540 nm.
(§6) Cell growth in the presence of test material was calculated in terms of the percentage of growth inhibition. The in vitro cytotoxicity of four natural boswellic acid i.e. boswellic acid, acetyl boswellic acid, 11-keto-boswellic acids, acetyl-11-ketio-boswellic acid on various cancer cell lines has been examined and typical results are given in the succeeding table. Based on their cytotoxicity profile the analogues of formula 1 were studied for inhibition of cell proliferation by using MTT assay method. […] The induction of apoptosis in HL-60 cells was also validated by generation of DNA fragmentation.
(§7) Assay of cytotoxicity potential of test materials is a primary standard procedure for seeking lead molecules for development of anti-cancer leads. Human cancer cells after trypsinization into single cell suspension were grown in 96-well culture plate for 24 hr. Cells were treated with indicated doses of test analogues and incubated in CO2 incubator for 48 hr. Thereafter, cells were stained with sulforhodamine B dye, and the bound dye was eluted to measure the optical density indicating cell growth in Elisa Reader at 540 nm [Monks et al., 1991]. […]

[1] = tested on: Colo-205 colon cancer cells; test: In vitro cytotoxicity, SRB assay, Colo-205
Protocol: as §1, §2, §3, §4, §5, §6, §7

[2] = tested on: SW-620 colon cancer cells; test: In vitro cytotoxicity, SRB assay, SW-620
Protocol: as §1, §2, §3, §4, §5, §6, §7

Hep-2 cells = test: In vitro cytotoxicity, SRB assay, Hep-2
Protocol: as §1, §2, §3, §4, §5, §6, §7

HT-29 colon cancer cells = test: In vitro cytotoxicity, SRB assay, HT-29
Protocol: as §1, §2, §3, §4, §5, §6, §7

[3] = Conc. 5 × 10^5 (r27-r29: 5 × 10^−5), 48 hr, Table 1
[4] = Conc. 5 × 10^−5, 48 hr, natural boswellic acids

Compound	Growth inhibition % PC-3 (PC-3 cells; [3])	Growth inhibition % Colo-205 Colon [1, 3]	Growth inhibition % SW-620 Colon [2, 3]	Growth inhibition % Hep-2 (Hep-2 cells; [3])	Growth inhibition % HT-29 Colon (HT-29 colon cancer cells; [3])	other results
CC1CCC2(C)CCC3(C)C(=CCC4C5(C)CCC(OC=O)C(C)(C(=O)O)C5CCC43C)C2C1C (centres unmarked) [1, R3O = COH, R1 = H, R4 = R5 = H]	99%	93%	92%	75%	79%	
CCCCCC(=O)OC1CCC2(C)C(CCC3(C)C2C(=O)C=C2C4C(C)C(C)CCC4(C)CCC23C)C1(C)C(=O)O (centres unmarked)	73%	95%	100%	100%	96%	
CC1CCC2(C)CCC3(C)C(=CC(=O)C4C5(C)CCC(OC(=O)CCC(=O)O)C(C)(C(=O)O)C5CCC43C)C2C1C (centres unmarked) [1,R3O = —COCH2CH2COOH R1 = H, R4 + R5 = O]	60%	29%	2%	17%	16%	
C[C@H]1[C@H](C)CC[C@]2(C)CC[C@]3(C)C(=CC[C@@H]4[C@@]5(C)CC[C@@H](O)[C@](C)(C(=O)O)[C@@H]5CC[C@]43C)[C@H]12 [Boswellic acid]						Growth inhibition % PC-3 (PC-3 cells; [4]): 100%; Growth inhibition % Colo-205 Colon [1, 4]: 86%; Growth inhibition % SW-620 Colon [2, 4]: 61%; Growth inhibition % Hep-2 (Hep-2 cells; [4]): 45%; Growth inhibition % HT-29 Colon (HT-29 colon cancer cells; [4]): 69%
CC1CCC2(C)CCC3(C)C(=CCC4C5(C)CCC(O)C(C)(C(=O)O)C5CCC43C)C2C1C (centres unmarked) [1, R3 = H, R1 = H, R4 = R5 = H]	69%	85%	65%	66%	73%	
Acetyl Boswellic acid [reference compound]						Growth inhibition % PC-3 (PC-3 cells; [4]): 45%; Growth inhibition % Colo-205 Colon [1, 4]: 95%; Growth inhibition % SW-620 Colon [2, 4]: 97%; Growth inhibition % Hep-2 (Hep-2 cells; [4]): 88%; Growth inhibition % HT-29 Colon (HT-29 colon cancer cells; [4]): 96%
CC(=O)O[C@@H]1CC[C@@]2(C)[C@@H](CC[C@]3(C)[C@@H]2C(=O)C=C2[C@@H]4[C@@H](C)[C@H](C)CC[C@]4(C)CC[C@]23C)[C@@]1(C)C(=O)O [Acetyl-11-keto-boswellic acid, reference compound]						Growth inhibition % PC-3 (PC-3 cells; [4]): 79%; Growth inhibition % Colo-205 Colon [1, 4]: 89%; Growth inhibition % SW-620 Colon [2, 4]: 91%; Growth inhibition % Hep-2 (Hep-2 cells; [4]): 62%; Growth inhibition % HT-29 Colon (HT-29 colon cancer cells; [4]): 91%
CC1CCC2(C)CCC3(C)C(=CC(=O)C4C5(C)CCC(OC=O)C(C)(C(=O)O)C5CCC43C)C2C1C (centres unmarked) [1, R3O = COH, R1 = H, R4 + R5 = O]	99%	76%	70%	56%	62%	
CCC(=O)OC1CCC2(C)C(CCC3(C)C2C(=O)C=C2C4C(C)C(C)CCC4(C)CCC23C)C1(C)C(=O)O (centres unmarked) [1, R3O = COCH2CH3, R1 = H, R4 + R5 = O]	61%	92%	90%	72%	92%	
CCCC(=O)OC1CCC2(C)C(CCC3(C)C2CC=C2C4C(C)C(C)CCC4(C)CCC23C)C1(C)C(=O)O (centres unmarked) [1, R3O = COCH2CH2CH3, R1 = H, R4 = R5 = H]	75%	91%	101%	99%	98%	
CC(=O)OC1CCC2(C)C(CCC3(C)C2C(=O)C=C2C4C(C)C(C)CCC4(C)CCC23C)C1(C)C(=O)O (centres unmarked) [1, R3O = COCH3, R1 = H, R4 + R5 = O]	60%	56%	48%	50%	45%	
CO[C@@]12[C@H](COC(N)=O)C3=C(C(=O)C(C)=C(N)C3=O)N1C[C@@H]1N[C@@H]12 [Mitomycin C, reference compound]						Growth inhibition % PC-3 (PC-3 cells; Conc. 1 × 10^6, Table 2): 24%; Growth inhibition % PC-3 (PC-3 cells; Conc. 1 × 10^7, Table 2): 18%; Growth inhibition % Colo-205 Colon ([1]; Conc. 1 × 10^6, Table 2): 28%; Growth inhibition % Colo-205 Colon ([1]; Conc. 1 × 10^7, Table 2): 41%; Growth inhibition % SW-620 Colon ([2]; Conc. 1 × 10^6, Table 2): 57%; Growth inhibition % SW-620 Colon ([2]; Conc. 1 × 10^7, Table 2): 27%; Growth inhibition % Hep-2 (Hep-2 cells; Conc. 1 × 10^6, Table 2): 46%; Growth inhibition % Hep-2 (Hep-2 cells; Conc. 1 × 10^7, Table 2): 12%; Growth inhibition % HT-29 Colon (HT-29 colon cancer cells; Conc. 1 × 10^6, Table 2): 33%; Growth inhibition % HT-29 Colon (HT-29 colon cancer cells; Conc. 1 × 10^7, Table 2): 19%
CCCC(=O)OC1CCC2(C)C(CCC3(C)C2C(=O)C=C2C4C(C)C(C)CCC4(C)CCC23C)C1(C)C(=O)O (centres unmarked)		94%				
CC1CCC2(C)CCC3(C)C(=CC(=O)C4C5(C)CCC(O)C(C)(C(=O)O)C5CCC43C)C2C1C (centres unmarked) [1, R = H, R1 = H, X = O]	68%	52%	49%	53%	46%	
CCC(=O)OC1CCC2(C)C(CCC3(C)C2C(=O)C=C2C4C(C)C(C)CCC4(C)CCC23C)C1(C)C(=O)O (centres unmarked) [1, R = COCH2CH3, R1 = H, R4 + R5 = O]	99%	80%	75%	65%	67%	
CC1CCC2(C)CCC3(C)C(=CC(=O)C4C5(C)CCC(OC(=O)CCC(=O)O)C(C)(C(=O)O)C5CCC43C)C2C1C (centres unmarked) [1,R3O = —COCH2CH2COOH, R1 = H, R4 + R5= O]	38%	1%	0%	7%	3%	
CCCC(=O)OC1CCC2(C)C(CCC3(C)C2CC=C2C4C(C)C(C)CCC4(C)CCC23C)C1(C)C(=O)O (centres unmarked) [1,R3O = COCH2CH2CH3, R1 = H, R4 = R5 = H]	80%	71%	83%	65%	54%	
CC(=O)OC1CCC2(C)C(CCC3(C)C2CC=C2C4C(C)C(C)CCC4(C)CCC23C)C1(C)C(=O)O (centres unmarked) [1, R3O = —COCH3, R1 = H, R4 = R5 = H]	54%	34%	38%	41%	34%	
CCC(=O)OC1CCC2(C)C(CCC3(C)C2CC=C2C4C(C)C(C)CCC4(C)CCC23C)C1(C)C(=O)O (centres unmarked) [1, R3O = —COCH2CH3, R1 = H, R4 = R5 = H]	98%	86%	94%	86%	94%	
C[C@H]1[C@H](C)CC[C@]2(C)CC[C@]3(C)C(=CC(=O)[C@@H]4[C@@]5(C)CC[C@@H](O)[C@](C)(C(=O)O)[C@@H]5CC[C@]43C)[C@H]12 [11-keto-boswellic acid, reference compound]						Growth inhibition % PC-3 (PC-3 cells; [4]): 100%; Growth inhibition % Colo-205 Colon [1, 4]: 50%; Growth inhibition % SW-620 Colon [2, 4]: 28%; Growth inhibition % Hep-2 (Hep-2 cells; [4]): 34%; Growth inhibition % HT-29 Colon (HT-29 colon cancer cells; [4]): 38%
